What follows are compounds tested against T1, human renal renin (Homo sapiens, UniProt P00797) (assay: inhibition of human renal renin in vitro, angiotensin I formed measured by radioimmunoassay). Conditions: human renal renin with human renin substrate (angiotensinogen), 37° C., pH 6.0.
T1 construct: human renal renin, free from acid proteolytic activity; from tissue; host or cells: human kidney (renal)
T1 sequence (P00797 67-406): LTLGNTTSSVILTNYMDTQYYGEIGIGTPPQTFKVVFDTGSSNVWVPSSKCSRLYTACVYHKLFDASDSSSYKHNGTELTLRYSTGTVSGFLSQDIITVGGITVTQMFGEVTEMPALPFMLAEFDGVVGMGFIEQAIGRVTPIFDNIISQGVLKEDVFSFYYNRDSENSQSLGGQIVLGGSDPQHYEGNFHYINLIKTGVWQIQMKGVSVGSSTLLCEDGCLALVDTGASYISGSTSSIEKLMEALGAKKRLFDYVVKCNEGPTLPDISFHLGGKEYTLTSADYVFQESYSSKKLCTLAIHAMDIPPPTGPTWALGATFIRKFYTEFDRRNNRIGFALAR
Assay type: biochemical

Compound | IC50 [nM]
CC(C)CNC(=O)CC(O)C(CC(C)C)NC(=O)C(Cc1cnc[nH]1)NC(=O)C(Cc1ccccc1)NC(=O)OC(C)(C)C (stereo not drawn) [Example 12, Boc-Phe-His-Sta amide of isobutylamine] | 500
CCC(C)C(CO)NC(=O)CC(O)C(CC(C)C)NC(=O)C(C)NC(=O)C(Cc1cccc2ccccc12)NC(=O)OC(C)(C)C (stereo not drawn) [Example 13, Boc-(α-Naphthyl)Ala-Ala-Sta-amide of isoleucinol] | 50
CCC(C)CNC(=O)C[C@H](O)[C@H](CC(C)C)NC(=O)[C@H](Cc1c[nH]cn1)NC(=O)[C@H](Cc1ccc(I)cc1)NC(=O)OC(C)(C)C (stereo partly drawn) [Example 17, Boc-p-iodo-Phe-His-Sta amide of 2-methylbutylamine] | 1000
CC(C)CCNC(=O)CC(O)C(CC1CCCCC1)NC(=O)C(Cc1cnc[nH]1)NC(=O)C(Cc1ccccc1)NC(=O)OC(C)(C)C (stereo not drawn) [Example 25, Boc-Phe-His-ACHPA amide of isopentylamine] | 5
CCCC(C(=O)NCC(C)CC)C(O)C(CC1CCCCC1)NC(=O)C(Cc1cnc[nH]1)NC(=O)C(Cc1ccccc1)NC(=O)OC(C)(C)C (stereo not drawn) [Example 46, Boc-Phe-Histidinyl-4-amino-2-propyl-3-hydroxy-5-cyclohexylpentanoic acid amide of 2-methylbutylamine] | 1.5
CCC(C)CNC(=O)C(OC)C(O)C(CC1CCCCC1)NC(=O)C(CCSC)NC(=O)C(Cc1ccccc1)NC(=O)OC(C)(C)C (stereo not drawn) [Example 47, Boc-Phe-Methioninyl-4-amino-2-methoxy-3-hydroxy-5-cyclohexylpentanoic acid amide of 2-methylbutylamine] | 1
CCC(C)CNC(=O)CC(O)C(CC1SCCCS1)NC(=O)C(CSC)NC(=O)C(Cc1ccccc1)NC(=O)OC(C)(C)C (stereo not drawn) [Example 79, Boc-Phe-S-methylcysteinyl-[3-hydroxy-4-amino-5-(1',3'-dithian-2'-yl)]-pentanoic acid amide of 2-methylbutylamine] | 6
CCC(C)CNC(=O)CC(O)C(CC1OCCCO1)NC(=O)[C@H](CSC)NC(=O)[C@H](Cc1ccccc1)NC(=O)OC(C)(C)C (stereo partly drawn) [Example 81, Boc-Phe-S-methylcysteinyl-[3-hydroxy-4-amino-5-(1',3'-dioxan-2'-yl)]-pentanoic acid amide of 2-methylbuylamine] | 700
CCOC(=O)N[C@@H](Cc1ccccc1)C(=O)N[C@@H](CC(C)C)C(=O)NC(CC1OCCCO1)C(O)CC(=O)NCC(C)CC (stereo partly drawn) [Example 82, Ethoxycarbonyl-Phe-Leu-[3-hydroxy-4-amino-5-(1',3'-dioxan-2'-yl)]-pentanoicacid amide of 2-methylbutylamine] | 7500
CCC(C)CNC(=O)CC(O)C(CC1SCCS1)NC(=O)C(Cc1cnc[nH]1)NC(=O)C(Cc1ccccc1)NC(=O)OC(C)(C)C (stereo not drawn) [Example 83, Boc-Phe-His-[3-hydroxy-4-amino-5-(1',3'-dithiolan-2'-yl)]-pentanoic acid amide of 2-methylbutylamine] | 1.5
CCC(C)CNC(=O)CC(O)C(CC1CCCCC1)NC(=O)C(CSC)NC(=O)C(Cc1ccccc1)NC(=O)N1C[C@@H](O)[C@@H](O)C1 (stereo partly drawn) [Example 95, (3,4-cis-dihydroxypyrrolidinylcarbonyl)-Phe-S-methyl-cys-ACHPA-amide of 2-Methylbutylamine] | 0.56
(3,4-cis-dihydroxypyrrolidinylcarbonyl)-O-methyl-Tyr-O-methyl-Ser-ACHPA Amide of 2-Methylbutylamine [Example 97] | 16

Further lines, results first:

IC50 [nM] | Compound
2 | 2(R,S)-(4-morpholinylcarbonylmethyl)-3-(1'-naphthyl)-propionyl-His-ACHPA-amide of 2-methylbutylamine [Example 87]
61 | 2(R,S)-(4-morpholinylcarbonylmethyl)-3-(4'-methoxyphenyl)-propionyl-His-ACHPA-amide of 2-methylbutylamine [Example 89]
700 | CC(C)CC(NC(=O)C(Cc1cnc[nH]1)NC(=O)C(Cc1ccccc1)NC(=O)OC(C)(C)C)C(O)CC(=O)NCc1ccccc1 (stereo not drawn) [Example 10, Boc-Phe-His-Sta amide of benzylamine]
100 | CCC(C)CNC(=O)CC(O)C(CC(C)C)NC(=O)C(Cc1cnc[nH]1)NC(=O)C(Cc1ccccc1)NC(=O)CC(C)(C)C (stereo not drawn) [Example 16, t-Butylacetyl-Phe-His-Sta amide of 2-methylbutylamine]
6 | CCC(C)CNC(=O)C(OCc1ccccc1)C(O)C(CC1CCCCC1)NC(=O)[C@H](C)NC(=O)[C@H](Cc1ccccc1)NC(=O)OC(C)(C)C (stereo partly drawn) [Example 32, Boc-Phe-Alaninyl-4-amino-2-benzyloxy-3-hydroxy-5-cyclohexylpentanoic acid amide of 2-methylbutylamine]
35 | CCC(C)CNC(=O)C(OCc1ccccc1)C(O)C(CC1CCCCC1)NC(=O)C(Cc1cnc[nH]1)NC(=O)C(Cc1ccccc1)NC(=O)OC(C)(C)C (stereo not drawn) [Example 33, Boc-Phe-Histidinyl-4-amino-2-benzyloxy-3-hydroxy-5-cyclohexylpentanoic acid amide of 2-methylbutylamine]
20 | CCC(C)CNC(=O)C(O)C(O)C(CC1CCCCC1)NC(=O)C(C)NC(=O)C(Cc1ccccc1)NC(=O)OC(C)(C)C (stereo not drawn) [Example 34, Boc-Phe-Alaninyl-4-amino-2,3-dihydroxy-5-cyclohexylpentanoic acid amide of 2-methylbutylamine]
7 | CCC(C)CNC(=O)C(O)C(O)C(CC1CCCCC1)NC(=O)C(Cc1cnc[nH]1)NC(=O)C(Cc1ccccc1)NC(=O)OC(C)(C)C (stereo not drawn) [Example 35, Boc-Phe-Histidinyl-4-amino-2,3-dihydroxy-5-cyclohexylpentanoic acid amide of 2-methylbutylamine]
30 | CCC(C)CNC(=O)C(OC)C(O)C(CC1CCCCC1)NC(=O)[C@H](Cc1cnc[nH]1)NC(=O)[C@H](Cc1ccccc1)NC(=O)OC(C)(C)C (stereo partly drawn) [Example 40, Boc-Phe-Histidinyl-4-amino-2-methoxy-3-hydroxy-5-cyclohexylpentanoic acid amide of 2-methylbutylamine]
1 | C=CCC(C(=O)NCC(C)CC)C(O)C(CC1CCCCC1)NC(=O)C(Cc1cnc[nH]1)NC(=O)C(Cc1ccccc1)NC(=O)OC(C)(C)C (stereo not drawn) [Example 45, Boc-Phe-Histidinyl-4-amino-2-allyl-3-hydroxy-5-cyclohexylpentanoic acid amide of 2-methylbutylamine]
0.7 | CCC(C)CNC(=O)C(OC)C(O)C(CC1CCCCC1)NC(=O)C(CSC)NC(=O)C(Cc1ccccc1)NC(=O)OC(C)(C)C (stereo not drawn) [Example 48, Boc-Phe-S-methylcysteinyl-4-amino-2-methoxy-3-hydroxy-5-cyclohexlpentanoic acid amide of 2-methylbutylamine]
1.5 | C=CCC(C(=O)NCC(C)CC)C(O)C(CC1CCCCC1)NC(=O)C(C)NC(=O)C(Cc1ccccc1)NC(=O)OC(C)(C)C (stereo not drawn) [Example 49, Boc-Phe-Alaninyl-4-amino-2-allyl-3-hydroxy-5-cyclohexylpentanoic acid amide of 2-methylbutylamine]
1 | C=CCC(C(=O)NCC(C)CC)C(O)C(CC1CCCCC1)NC(=O)C(CSC)NC(=O)C(Cc1ccccc1)NC(=O)OC(C)(C)C (stereo not drawn) [Example 50, Boc-Phe-S-methylcysteinyl-4-amino-2-allyl-3-hydroxy-5-cyclohexylpentanoic acid amide of 2-methylbutylamine]
1 | CCC(C)CNC(=O)CC(O)C(CC1SCCS1)NC(=O)[C@H](CSC)NC(=O)[C@H](Cc1ccccc1)NC(=O)OC(C)(C)C (stereo partly drawn) [Example 78, Boc-Phe-S-methylcysteinyl-[3-hydroxy-4-amino-5-(1',3'-dithiolan-2'-yl)]-pentanoic acid amide of 2-methylbutylamine]
600 | CCC(C)CNC(=O)CC(O)C(CC1OCCO1)NC(=O)C(CSC)NC(=O)C(Cc1ccccc1)NC(=O)OC(C)(C)C (stereo not drawn) [Example 80, Boc-Phe-S-methylcysteinyl-[3-hydroxy-4-amino-5-(1',3'-dioxolan-2'-yl)]-pentanoic acid amide of 2-methylbutylamine]
400 | Boc-(α-Naphthyl)-Ala-Ala-Sta amide of benzylamine [Example 11]

From patent publication US4826958A, “Renin inhibiting compounds” (Abbott Laboratories, priority 1988, dated 1989)
